From US10323036B2 (Nimbus Lakshmi, Inc., priority 2016, dated 2019) come the findings set out here.

Some results are limits rather than exact numbers.

The target in the test is human TYK2 (JH2domain-pseudokinase) (Homo sapiens (Human), UniProt P29597). Nature of the test: TYK2 JH2 Domain Binding Assay (KINOMEscan). Particulars: Table 4, JH2 binding assay; read-out: JH2 Kd.
Sequence of human TYK2 (JH2domain-pseudokinase) (P29597 556-888): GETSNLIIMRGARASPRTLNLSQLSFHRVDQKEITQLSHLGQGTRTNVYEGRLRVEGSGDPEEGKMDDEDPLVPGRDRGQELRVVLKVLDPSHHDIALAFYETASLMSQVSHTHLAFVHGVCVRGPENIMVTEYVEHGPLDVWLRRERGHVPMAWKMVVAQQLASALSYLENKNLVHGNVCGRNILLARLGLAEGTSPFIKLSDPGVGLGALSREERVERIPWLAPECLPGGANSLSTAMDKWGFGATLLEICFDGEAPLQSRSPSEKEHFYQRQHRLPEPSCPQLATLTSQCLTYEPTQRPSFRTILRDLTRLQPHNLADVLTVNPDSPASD
`CCNC(=O)c1ccc(Nc2cc(NC(=O)C3CC3)nc3[nH]n(C)c(=O)c23)c(OC)c1` [Compound I-114, 4-((6-(cyclopropanecarboxamido)-2-methyl-3-oxo-2,3-dihydro-1H-pyrazolo[3,4-b]pyridin-4-yl)amino)-N-ethyl-3-methoxybenzamide]: the dissociation constant Kd lay within 1 to 10 nM.
Turning to `COc1c(Cl)cccc1Nc1cc(Nc2ccc(N3CCOCC3)cn2)nc2[nH]n(C)c(=O)c12` [Compound I-115, 4-((3-chloro-2-methoxyphenyl)amino)-2-methyl-6-((5-morpholinopyridin-2-yl)amino)-1,2-dihydro-3H-pyrazolo[3,4-b]pyridin-3-one], the Kd lay within 1 to 10 nM.
With `COc1c(Cl)cccc1Nc1cc(Nc2cncc(C#N)n2)nc2[nH]n(C)c(=O)c12` [Compound I-117, 6-((4-((3-chloro-2-methoxyphenyl)amino)-2-methyl-3-oxo-2,3-dihydro-1H-pyrazolo[3,4-b]pyridin-6-yl)amino)pyrazine-2-carbonitrile], the Kd was above 10 nM.
The result for `Cn1[nH]c2nc(Nc3ccc(N4CCCCC4)cn3)cc(Nc3ccccc3S(C)(=O)=O)c2c1=O` [Compound I-118, 2-methyl-4-((2-(methylsulfonyl)phenyl)amino)-6-((5-(piperidin-1-yl)pyridin-2-yl)amino)-1,2-dihydro-3H-pyrazolo[3,4-b]pyridin-3-one] reads above 10 nM.
With `Cn1[nH]c2nc(Nc3cncc(C#N)n3)cc(Nc3ccccc3S(C)(=O)=O)c2c1=O` [Compound I-119, 6-((2-methyl-4-((2-(methylsulfonyl)phenyl)amino)-3-oxo-2,3-dihydro-1H-pyrazolo[3,4-b]pyridin-6-yl)amino)pyrazine-2-carbonitrile] the figure was 1 to 10 nM; with `COc1c(Nc2cc(Nc3cc(C)c(F)cn3)nc3[nH]n(C)c(=O)c23)cccc1-c1ccn(C)n1` [Compound I-120, 6-((5-fluoro-4-methylpyridin-2-yl)amino)-4-((2-methoxy-3-(1-methyl-1H-pyrazol-3-yl)phenyl)amino)-2-methyl-1,2-dihydro-3H-pyrazolo[3,4-b]pyridin-3-one], 1 to 10 nM.
With `COc1c(Nc2cc(Nc3ccc(C)nn3)nc3[nH]n(C)c(=O)c23)cccc1-c1ccn(C)n1` [Compound I-121, 4-((2-methoxy-3-(1-methyl-1H-pyrazol-3-yl)phenyl)amino)-2-methyl-6-((6-methylpyridazin-3-yl)amino)-1,2-dihydro-3H-pyrazolo[3,4-b]pyridin-3-one] the figure was 0.5 to 1 nM.
With `COc1c(Nc2cc(Nc3cccc(C#N)n3)nc3[nH]n(C)c(=O)c23)cccc1-c1ccn(C)n1` [Compound I-122, 6-((4-((2-methoxy-3-(1-methyl-1H-pyrazol-3-yl)phenyl)amino)-2-methyl-3-oxo-2,3-dihydro-1H-pyrazolo[3,4-b]pyridin-6-yl)amino)picolinonitrile], the Kd fell in the range of 0.1 to 0.5 nM.
As to `COc1c(Nc2cc(Nc3cc(C)nc(C)n3)nc3[nH]n(C)c(=O)c23)cccc1-c1ccn(C)n1` [Compound I-123, 6-((2,6-dimethylpyrimidin-4-yl)amino)-4-((2-methoxy-3-(1-methyl-1H-pyrazol-3-yl)phenyl)amino)-2-methyl-1,2-dihydro-3H-pyrazolo[3,4-b]pyridin-3-one], the Kd fell in the range of 0.1 to 0.5 nM.
On to `COc1c(Nc2cc(Nc3ccc(N4CCCCC4)cn3)nc3[nH]n(C)c(=O)c23)cccc1-c1ccn(C)n1` [Compound I-124, 4-((2-methoxy-3-(1-methyl-1H-pyrazol-3-yl)phenyl)amino)-2-methyl-6-((5-(piperidin-1-yl)pyridin-2-yl)amino)-1,2-dihydro-3H-pyrazolo[3,4-b]pyridin-3-one], for which the Kd lay in the range of 1 to 10 nM.
As for `Cn1[nH]c2nc(NC(=O)C3CC3)cc(Nc3ccccc3P(C)(C)=O)c2c1=O` [Compound I-125, N-(4-((2-(dimethylphosphoryl)phenyl)amino)-2-methyl-3-oxo-2,3-dihydro-1H-pyrazolo[3,4-b]pyridin-6-yl)cyclopropanecarboxamide], the Kd was above 10 nM.
Turning to `COCc1ccnc(Nc2cc(Nc3cccc(C(N)=O)c3OC)c3c(=O)n(C)[nH]c3n2)c1` [Compound I-126, 2-methoxy-3-((6-((4-(methoxymethyl)pyridin-2-yl)amino)-2-methyl-3-oxo-2,3-dihydro-1H-pyrazolo[3,4-b]pyridin-4-yl)amino)benzamide], the Kd was above 10 nM.
With `COc1c(Nc2cc(NC(=O)C3CC3)nc3[nH]n(C)c(=O)c23)ccc(F)c1F` [Compound I-127, N-(4-((3,4-difluoro-2-methoxyphenyl)amino)-2-methyl-3-oxo-2,3-dihydro-1H-pyrazolo[3,4-b]pyridin-6-yl)cyclopropanecarboxamide], the Kd is above 10 nM.
With `COc1c(Cl)cccc1Nc1cc(Nc2ccc(C(=O)N3CCCC3)c(C(F)(F)F)n2)nc2[nH]n(C)c(=O)c12` [Compound I-128, 4-((3-chloro-2-methoxyphenyl)amino)-2-methyl-6-((5-(pyrrolidine-1-carbonyl)-6-(trifluoromethyl)pyridin-2-yl)amino)-1,2-dihydro-3H-pyrazolo[3,4-b]pyridin-3-one] the figure was 0.1 to 0.5 nM.
In the case of `CN(c1ccccc1Nc1cc(NC(=O)C2CC2)nc2[nH]n(C)c(=O)c12)S(C)(=O)=O` [Compound I-129, N-(2-methyl-4-((2-(N-methylmethylsulfonamido)phenyl)amino)-3-oxo-2,3-dihydro-1H-pyrazolo[3,4-b]pyridin-6-yl)cyclopropanecarboxamide], the Kd is 0.1 to 0.5 nM.
On to `COc1c(Cl)cccc1Nc1cc(Nc2ccc(C(=O)N3CCOCC3)c(C(F)(F)F)n2)nc2[nH]n(C)c(=O)c12` [Compound I-130, 4-((3-chloro-2-methoxyphenyl)amino)-2-methyl-6-((5-(morpholine-4-carbonyl)-6-(trifluoromethyl)pyridin-2-yl)amino)-1,2-dihydro-3H-pyrazolo[3,4-b]pyridin-3-one], for which the Kd is 0.1 to 0.5 nM.
Regarding `COc1c(Nc2cc(NC(=O)C3CC3)nc3[nH]n(C)c(=O)c23)cccc1-c1noc(C)n1` [Compound I-131], the Kd fell in the range of 0.1 to 0.5 nM.
As to `COc1c(Cl)cccc1Nc1cc(Nc2ccc(C)c(C#N)n2)nc2[nH]n(C)c(=O)c12` [Compound I-132, 6-((4-((3-chloro-2-methoxyphenyl)amino)-2-methyl-3-oxo-2,3-dihydro-1H-pyrazolo[3,4-b]pyridin-6-yl)amino)-3-methylpicolinonitrile], the Kd fell in the range of 0.1 to 0.5 nM.
With `COc1c(Nc2cc(Nc3cc(C)c(F)cn3)nc3[nH]n(C)c(=O)c23)cccc1-c1cnc[nH]1` [Compound I-133] the figure was 0.1 to 0.5 nM.
With `COc1c(Cl)cccc1Nc1cc(Nc2ccc(N3CCCC3=O)c(C#N)n2)nc2[nH]n(C)c(=O)c12` [Compound I-134, 6-((4-((3-chloro-2-methoxyphenyl)amino)-2-methyl-3-oxo-2,3-dihydro-1H-pyrazolo[3,4-]pyridin-6-yl)amino)-3-(2-oxopyrrolidin-1-yl)picolinonitrile], the Kd is 0.1 to 0.5 nM.
Consider `COc1c(Cl)cccc1Nc1cc(Nc2cnc(C)c(C#N)n2)nc2[nH]n(C)c(=O)c12` [Compound I-135, 6-((4-((3-chloro-2-methoxyphenyl)amino)-2-methyl-3-oxo-2,3-dihydro-1H-pyrazolo[3,4-b]pyridin-6-yl)amino)-3-methylpyrazine-2-carbonitrile], for which the Kd fell in the range of 1 to 10 nM.

One may read the Kd as the constant that tells how readily two partners part at equilibrium.
